Biological target: T1, Myoferlin (MYOF) (Homo sapiens, UniProt Q9NZM1)
T1 construct: C2D domain of MYOF (MYOF-C2D)
T1 sequence (Q9NZM1 1123-1251 limits assumed): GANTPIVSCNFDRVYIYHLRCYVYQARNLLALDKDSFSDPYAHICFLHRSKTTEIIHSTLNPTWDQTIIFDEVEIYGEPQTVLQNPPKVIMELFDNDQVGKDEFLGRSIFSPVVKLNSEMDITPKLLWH
Test: SPR (Biacore T200, immobilized MYOF-C2D); confirmed by BLI (KD =[…])
Type: binding

- Kd: 37 nM
SMILES: CCc1nc(-c2ccc(OC)cc2)n(-c2cccc(C(=O)NCCCCc3ccccc3)c2)n1 [YQ456, 3‐(3‐ethyl‐5‐(4‐methoxyphenyl)‐1H‐1,2,4‐triazol‐1‐yl)‐N‐(4‐phenylbutyl)benzamide]
